{
  "source": "patent US20210186984A1",
  "about": "“CERTAIN (2S)-N-[(1S)-1-CYANO-2-PHENYLETHYL]-1,4-OXAZEPANE-2-CARBOXAMIDES FOR TREATING ANCA ASSOCIATED VASCULITIDES” (Insmed Incorporated, priority 2018, published 2021)",
  "key": {"surface PR3": {"tested_on": "surface PR3", "experiment": "Fluorescence microscopy of surface PR3 on neutrophils differentiated in presence of INS1007", "type": "cell-based, human", "settings": "differentiation in the presence of 10 μM; neutrophils derived from bone marrow and umbilical cord stem cells (both cell types)", "description": "To evaluate the pharmacological effects of INS1007 on surface PR3 expression, total PR3 expression, and NSP activity, stem cells were differentiated to neutrophils in the presence of INS1007 at increasing concentrations. Primary bone marrow (BM) or umbilical cord blood (UC) derived CD34^+ neutrophil progenitor cells (AllCells; Alameda, Calif.) were cultured for 7 days in STEMSPAN™ SFEM media (Stemcell Technologies; Tukwila, WA) supplemented with recombinant human Stem Cell Factor (Peprotech; Rocky Hill, NJ) and recombinant human IL-3 (Peprotech). The cells were differentiated in culture for another 7 days in STEMSPAN™ SFEM media (Stemcell Technologies) with recombinant human Granulocyte Colony Stimulating Factor (Peprotech), plus increasing concentrations of INS1007 (0-10 μM). […]\nIn a separate experiment, neutrophils were harvested, stained for 30 min. with either a mouse anti-PR3 monoclonal antibody (Abcam; Cambridge, Mass.) or a mouse monoclonal IgG isotype control (Abcam), followed by a Cy5-conjugated goat anti-mouse IgG secondary antibody (Abcam), fixed in 4% formaldehyde, and mounted to glass slides with PROLONGTM Diamond Antifade Mountant with DAPI (Thermo Fisher; Waltham, Mass.). Samples were imaged with an Axio fluorescence microscope (Zeiss; Oberkochen, Germany) using constant settings while imaging samples from different treatment conditions."}, "total proteinase 3 (PR3)": {"tested_on": "total proteinase 3 (PR3)", "experiment": "Flow cytometry of total (surface and intracellular) PR3 expression in differentiated neutrophils", "type": "cell-based, human", "description": "To evaluate the pharmacological effects of INS1007 on surface PR3 expression, total PR3 expression, and NSP activity, stem cells were differentiated to neutrophils in the presence of INS1007 at increasing concentrations. Primary bone marrow (BM) or umbilical cord blood (UC) derived CD34^+ neutrophil progenitor cells (AllCells; Alameda, Calif.) were cultured for 7 days in STEMSPAN™ SFEM media (Stemcell Technologies; Tukwila, WA) supplemented with recombinant human Stem Cell Factor (Peprotech; Rocky Hill, NJ) and recombinant human IL-3 (Peprotech). The cells were differentiated in culture for another 7 days in STEMSPAN™ SFEM media (Stemcell Technologies) with recombinant human Granulocyte Colony Stimulating Factor (Peprotech), plus increasing concentrations of INS1007 (0-10 μM). At the end of the differentiation/treatment period, cells were harvested for analysis.\nDifferentiated neutrophils were harvested for flow cytometry to quantify PR3 expression on the surface of neutrophils (FIGS. 1 and 2) and neutrophil total PR3 expression (FIG. 3)."}},
  "data": [
    {"smiles": "Cn1c(=O)oc2ccc(-c3ccc(C[C@@H](C#N)NC(=O)[C@@H]4CNCCCO4)cc3)cc21", "note": "[INS1007, (2S)-N-{(1S)-1-cyano-2-[4-(3-methyl-2-oxo-2,3-dihydro-1,3-benzoxazol-5-yl)phenyl]ethyl}-1,4-oxazepane-2-carboxamide]", "values": [
      {"measurement": "surface PR3 (fluorescence microscopy)", "setting": "surface PR3", "result": "markedly reduced"},
      {"measurement": "total PR3 levels", "setting": "total proteinase 3 (PR3); bone marrow stem cell-derived neutrophils, not completely concentration-dependent", "result": "significantly reduced"},
      {"measurement": "percentage of cells with positive total PR3 expression", "setting": "total proteinase 3 (PR3); neutrophils derived from either umbilical cord blood or bone marrow stem cells", "result": "did not reduce"},
      {"measurement": "total PR3 levels", "setting": "total proteinase 3 (PR3); umbilical cord blood stem cell-derived neutrophils", "result": "did not reach statistically significant reduction"}
    ]}
  ]
}
